# Laboratory results: patent US10485235B2, “Aryloxypyrimidinyl ethers as herbicides” (FMC Corporation, priority 2015, dated 2019)
# System: pigweed (Amaranthus retroflexus)
# Test: Test A postemergence, pigweed
# Format: in vivo
# Settings: 125 g ai/ha, postemergence; 0 to 100 scale, 0 is no effect, 100 is complete control; approximately 10 days
# Source text: (§1) Seeds of plant species selected from barnyardgrass (Echinochloa crus-galli), kochia (Kochia scoparia), ragweed (common ragweed, Ambrosia elatior), ryegrass, Italian (Italian ryegrass, Lolium multiflorum), foxtail, giant (giant foxtail, Setaria faberii), and pigweed (Amaranthus retroflexus), were planted into a blend of loam soil and sand and treated preemergence with a directed soil spray using test chemicals formulated in a non-phytotoxic solvent mixture which included a surfactant.
# (§2) At the same time, plants selected from these weed species and also wheat (Triticum aestivum), corn (Zea mays), blackgrass (Alopecurus myosuroides), and galium (catchweed bedstraw, Galium aparine), were planted in pots containing the same blend of loam soil and sand and treated with postemergence applications of test chemicals formulated in the same manner. Plants ranged in height from 2 to 10 cm and were in the one- to two-leaf stage for the postemergence treatment. Treated plants and untreated controls were maintained in a greenhouse for approximately 10 days, after which time all treated plants were compared to untreated controls and visually evaluated for injury. Plant response ratings, summarized in Table A, are based on a 0 to 100 scale where 0 is no effect and 100 is complete control. A dash (—) response means no test result.
row,SMILES,"Plant response rating, Pigweed"
1,N#CCCCOc1c(I)cccc1Oc1ncc(Cl)cn1 [Compound 67],100

# Same assay, conditions: Postemergence, 31 g ai/ha; 0 to 100 scale (0 no effect, 100 complete control)
row,SMILES,"Plant response rating, Pigweed"
1,N#CCCCOc1c(I)cccc1Oc1ncc(Cl)cn1 [Compound 67],60

# System: blackgrass (Alopecurus myosuroides)
# Test: Test A postemergence, blackgrass
# Format: in vivo
# Settings: 125 g ai/ha, postemergence; 0 to 100 scale, 0 is no effect, 100 is complete control; approximately 10 days
# Source text: as §1, §2
row,SMILES,"Plant response rating, Blackgrass"
1,N#CCCCOc1c(I)cccc1Oc1ncc(Cl)cn1 [Compound 67],30

# Same assay, conditions: Postemergence, 31 g ai/ha; 0 to 100 scale (0 no effect, 100 complete control)
row,SMILES,"Plant response rating, Blackgrass"
1,N#CCCCOc1c(I)cccc1Oc1ncc(Cl)cn1 [Compound 67],0

# System: barnyardgrass (Echinochloa crus-galli)
# Test: Test A postemergence, barnyardgrass
# Format: in vivo
# Settings: 125 g ai/ha, postemergence; 0 to 100 scale, 0 is no effect, 100 is complete control; approximately 10 days
# Source text: as §1, §2
row,SMILES,"Plant response rating, Barnyardgrass"
1,N#CCCCOc1c(I)cccc1Oc1ncc(Cl)cn1 [Compound 67],30

# Same assay, conditions: Postemergence, 31 g ai/ha; 0 to 100 scale (0 no effect, 100 complete control)
row,SMILES,"Plant response rating, Barnyardgrass"
1,N#CCCCOc1c(I)cccc1Oc1ncc(Cl)cn1 [Compound 67],0

# System: rice (Oryza sativa)
# Test: Test B flooded paddy test, rice
# Format: in vivo
# Settings: 250 g ai/ha, Flood; visual rating after 13 to 15 days; scale 0 to 100, 0 is no effect, 100 is complete control
# Protocol: (§3) Plant species in the flooded paddy test selected from rice (Oryza sativa), sedge, umbrella (small-flower umbrella sedge, Cyperus difformis), ducksalad (Heteranthera limosa), and barnyardgrass (Echinochloa crus-galli) were grown to the 2-leaf stage for testing. At time of treatment, test pots were flooded to 3 cm above the soil surface, treated by application of test compounds directly to the paddy water, and then maintained at that water depth for the duration of the test. Treated plants and controls were maintained in a greenhouse for 13 to 15 days, after which time all species were compared to controls and visually evaluated. Plant response ratings, summarized in Table B, are based on a scale of 0 to 100 where 0 is no effect and 100 is complete control. A dash (—) response means no test result.
row,SMILES,"Plant response rating, Rice"
1,N#CCCCOc1c(I)cccc1Oc1ncc(Cl)cn1 [Compound 67],10

# System: foxtail, giant (giant foxtail, Setaria faberii)
# Test: Test A preemergence, giant foxtail
# Format: in vivo
# Settings: Preemergence, 31 g ai/ha; 0 to 100 scale (0 no effect, 100 complete control)
# Source text: as §1, §2
row,SMILES,"Plant response rating, Foxtail, Giant"
1,N#CCCCOc1c(I)cccc1Oc1ncc(Cl)cn1 [Compound 67],60

# Same assay, conditions: Preemergence, 125 g ai/ha; 0 to 100 scale (0 no effect, 100 complete control)
row,SMILES,"Plant response rating, Foxtail, Giant"
1,N#CCCCOc1c(I)cccc1Oc1ncc(Cl)cn1 [Compound 67],100

# System: galium (catchweed bedstraw, Galium aparine)
# Test: Test A postemergence, galium
# Format: in vivo
# Settings: 125 g ai/ha, postemergence; 0 to 100 scale, 0 is no effect, 100 is complete control; approximately 10 days
# Source text: as §1, §2
row,SMILES,"Plant response rating, Galium"
1,N#CCCCOc1c(I)cccc1Oc1ncc(Cl)cn1 [Compound 67],50

# Same assay, conditions: Postemergence, 31 g ai/ha; 0 to 100 scale (0 no effect, 100 complete control)
row,SMILES,"Plant response rating, Galium"
1,N#CCCCOc1c(I)cccc1Oc1ncc(Cl)cn1 [Compound 67],30

# System: foxtail, giant (giant foxtail, Setaria faberii)
# Test: Test A postemergence, giant foxtail
# Format: in vivo
# Settings: 125 g ai/ha, postemergence; 0 to 100 scale, 0 is no effect, 100 is complete control; approximately 10 days
# Source text: as §1, §2
row,SMILES,"Plant response rating, Foxtail, Giant"
1,N#CCCCOc1c(I)cccc1Oc1ncc(Cl)cn1 [Compound 67],30

# Same assay, conditions: Postemergence, 31 g ai/ha; 0 to 100 scale (0 no effect, 100 complete control)
row,SMILES,"Plant response rating, Foxtail, Giant"
1,N#CCCCOc1c(I)cccc1Oc1ncc(Cl)cn1 [Compound 67],10

# System: ragweed (common ragweed, Ambrosia elatior)
# Test: Test A postemergence, ragweed
# Format: in vivo
# Settings: 125 g ai/ha, postemergence; 0 to 100 scale, 0 is no effect, 100 is complete control; approximately 10 days
# Source text: as §1, §2
row,SMILES,"Plant response rating, Ragweed"
1,N#CCCCOc1c(I)cccc1Oc1ncc(Cl)cn1 [Compound 67],10

# Same assay, conditions: Postemergence, 31 g ai/ha; 0 to 100 scale (0 no effect, 100 complete control)
row,SMILES,"Plant response rating, Ragweed"
1,N#CCCCOc1c(I)cccc1Oc1ncc(Cl)cn1 [Compound 67],0

# System: pigweed (Amaranthus retroflexus)
# Test: Test A preemergence, pigweed
# Format: in vivo
# Settings: Preemergence, 31 g ai/ha; 0 to 100 scale (0 no effect, 100 complete control)
# Source text: as §1, §2
row,SMILES,"Plant response rating, Pigweed"
1,N#CCCCOc1c(I)cccc1Oc1ncc(Cl)cn1 [Compound 67],50

# Same assay, conditions: Preemergence, 125 g ai/ha; 0 to 100 scale (0 no effect, 100 complete control)
row,SMILES,"Plant response rating, Pigweed"
1,N#CCCCOc1c(I)cccc1Oc1ncc(Cl)cn1 [Compound 67],100

# System: kochia (Kochia scoparia)
# Test: Test A preemergence, kochia
# Format: in vivo
# Settings: Preemergence, 31 g ai/ha; 0 to 100 scale (0 no effect, 100 complete control)
# Source text: as §1, §2
row,SMILES,"Plant response rating, Kochia"
1,N#CCCCOc1c(I)cccc1Oc1ncc(Cl)cn1 [Compound 67],20

# Same assay, conditions: Preemergence, 125 g ai/ha; 0 to 100 scale (0 no effect, 100 complete control)
row,SMILES,"Plant response rating, Kochia"
1,N#CCCCOc1c(I)cccc1Oc1ncc(Cl)cn1 [Compound 67],80

# System: ryegrass, Italian (Italian ryegrass, Lolium multiflorum)
# Test: Test A preemergence, Italian ryegrass
# Format: in vivo
# Settings: Preemergence, 31 g ai/ha; 0 to 100 scale (0 no effect, 100 complete control)
# Source text: as §1, §2
row,SMILES,"Plant response rating, Ryegrass, Italian"
1,N#CCCCOc1c(I)cccc1Oc1ncc(Cl)cn1 [Compound 67],0

# Same assay, conditions: Preemergence, 125 g ai/ha; 0 to 100 scale (0 no effect, 100 complete control)
row,SMILES,"Plant response rating, Ryegrass, Italian"
1,N#CCCCOc1c(I)cccc1Oc1ncc(Cl)cn1 [Compound 67],20

# System: wheat (Triticum aestivum)
# Test: Test A postemergence, wheat
# Format: in vivo
# Settings: 125 g ai/ha, postemergence; 0 to 100 scale, 0 is no effect, 100 is complete control; approximately 10 days
# Source text: as §1, §2
row,SMILES,"Plant response rating, Wheat"
1,N#CCCCOc1c(I)cccc1Oc1ncc(Cl)cn1 [Compound 67],0

# Same assay, conditions: Postemergence, 31 g ai/ha; 0 to 100 scale (0 no effect, 100 complete control)
row,SMILES,"Plant response rating, Wheat"
1,N#CCCCOc1c(I)cccc1Oc1ncc(Cl)cn1 [Compound 67],0

# System: barnyardgrass (Echinochloa crus-galli)
# Test: Test B flooded paddy test, barnyardgrass
# Format: in vivo
# Settings: 250 g ai/ha, Flood; visual rating after 13 to 15 days; scale 0 to 100, 0 is no effect, 100 is complete control
# Protocol: as §3
row,SMILES,"Plant response rating, Barnyardgrass"
1,N#CCCCOc1c(I)cccc1Oc1ncc(Cl)cn1 [Compound 67],0

# System: sedge, umbrella (small-flower umbrella sedge, Cyperus difformis)
# Test: Test B flooded paddy test, umbrella sedge
# Format: in vivo
# Settings: 250 g ai/ha, Flood; visual rating after 13 to 15 days; scale 0 to 100, 0 is no effect, 100 is complete control
# Protocol: as §3
row,SMILES,"Plant response rating, Sedge, Umbrella"
1,N#CCCCOc1c(I)cccc1Oc1ncc(Cl)cn1 [Compound 67],95

# System: ragweed (common ragweed, Ambrosia elatior)
# Test: Test A preemergence, ragweed
# Format: in vivo
# Settings: Preemergence, 31 g ai/ha; 0 to 100 scale (0 no effect, 100 complete control)
# Source text: as §1, §2
row,SMILES,"Plant response rating, Ragweed"
1,N#CCCCOc1c(I)cccc1Oc1ncc(Cl)cn1 [Compound 67],0

# Same assay, conditions: Preemergence, 125 g ai/ha; 0 to 100 scale (0 no effect, 100 complete control)
row,SMILES,"Plant response rating, Ragweed"
1,N#CCCCOc1c(I)cccc1Oc1ncc(Cl)cn1 [Compound 67],0

# System: barnyardgrass (Echinochloa crus-galli)
# Test: Test A preemergence, barnyardgrass
# Format: in vivo
# Settings: Preemergence, 31 g ai/ha; 0 to 100 scale (0 no effect, 100 complete control)
# Source text: as §1, §2
row,SMILES,"Plant response rating, Barnyardgrass"
1,N#CCCCOc1c(I)cccc1Oc1ncc(Cl)cn1 [Compound 67],0

# Same assay, conditions: Preemergence, 125 g ai/ha; 0 to 100 scale (0 no effect, 100 complete control)
row,SMILES,"Plant response rating, Barnyardgrass"
1,N#CCCCOc1c(I)cccc1Oc1ncc(Cl)cn1 [Compound 67],30

# System: ducksalad (Heteranthera limosa)
# Test: Test B flooded paddy test, ducksalad
# Format: in vivo
# Settings: 250 g ai/ha, Flood; visual rating after 13 to 15 days; scale 0 to 100, 0 is no effect, 100 is complete control
# Protocol: as §3
row,SMILES,"Plant response rating, Ducksalad"
1,N#CCCCOc1c(I)cccc1Oc1ncc(Cl)cn1 [Compound 67],100

# System: corn (Zea mays)
# Test: Test A postemergence, corn
# Format: in vivo
# Settings: 125 g ai/ha, postemergence; 0 to 100 scale, 0 is no effect, 100 is complete control; approximately 10 days
# Source text: as §1, §2
row,SMILES,"Plant response rating, Corn"
1,N#CCCCOc1c(I)cccc1Oc1ncc(Cl)cn1 [Compound 67],20

# Same assay, conditions: Postemergence, 31 g ai/ha; 0 to 100 scale (0 no effect, 100 complete control)
row,SMILES,"Plant response rating, Corn"
1,N#CCCCOc1c(I)cccc1Oc1ncc(Cl)cn1 [Compound 67],10

# System: kochia (Kochia scoparia)
# Test: Test A postemergence, kochia
# Format: in vivo
# Settings: 125 g ai/ha, postemergence; 0 to 100 scale, 0 is no effect, 100 is complete control; approximately 10 days
# Source text: as §1, §2
row,SMILES,"Plant response rating, Kochia"
1,N#CCCCOc1c(I)cccc1Oc1ncc(Cl)cn1 [Compound 67],100

# Same assay, conditions: Postemergence, 31 g ai/ha; 0 to 100 scale (0 no effect, 100 complete control)
row,SMILES,"Plant response rating, Kochia"
1,N#CCCCOc1c(I)cccc1Oc1ncc(Cl)cn1 [Compound 67],60

# System: ryegrass, Italian (Italian ryegrass, Lolium multiflorum)
# Test: Test A postemergence, Italian ryegrass
# Format: in vivo
# Settings: 125 g ai/ha, postemergence; 0 to 100 scale, 0 is no effect, 100 is complete control; approximately 10 days
# Source text: as §1, §2
row,SMILES,"Plant response rating, Ryegrass, Italian"
1,N#CCCCOc1c(I)cccc1Oc1ncc(Cl)cn1 [Compound 67],10

# Same assay, conditions: Postemergence, 31 g ai/ha; 0 to 100 scale (0 no effect, 100 complete control)
row,SMILES,"Plant response rating, Ryegrass, Italian"
1,N#CCCCOc1c(I)cccc1Oc1ncc(Cl)cn1 [Compound 67],0
